In patent publication EP4678638A1, “NEW E3 UBIQUITIN LIGASE LIGAND, PROTEIN DEGRADATION AGENT AND USE THEREOF” (priority 2023, dated 2024):

Assays:
[1] = target: T1, human Cereblon WT GST-tagged protein (Homo sapiens, UniProt Q96SW2); test: CRBN binding, HTRF (CEREBLON BINDING kit); details: Table II-2, CRBN binding screening, HTRF; for inhibition at 0.5 µM: read-out: Inhibition rate (%) at 0.5µM; for inhibition at 2 µM: read-out: Inhibition rate (%) at 2 µM
T1 construct: purchased CISBIO 64BDCRBNPEH
Method in brief: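 Competitive HTRF: GST-tagged human WT Cereblon mixed with compound, Thalidomide-Re tracer and GST Eu antibody, incubated 3 h at room temperature. Signals read at 620 and 665 nm.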

CDK6 = target: T2, CDK6 (Homo sapiens, UniProt Q00534); test: Western blot degradation of CDK6 (MDA-MB-231 Cell); assay type: cell-based; details: Table D3
T2 construct: evaluate the effects of the compounds of the present disclosure on the expression of target proteins in cells; endogenous in cells; host or cells: MDA-MB-231
Method in brief: (§1)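 After compound exposure, cells were harvested and lysates run on SDS-PAGE, transferred to nitrocellulose and probed with antibodies. Remaining target (%) was computed from band grayscale relative to an internal control protein and normalised; degradation (%) was 100% minus that.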

MM.1R = test: CCK-8 proliferation, MM.1R; assay type: cell-based; details: CCK-8, 72 hours, read-out: Inhibitory activity (IC50) on tumor cell proliferation, MM.1R
Protocol: (§2) The tumor cells used herein were cultured in a cell culture medium listed in table A1 at 37°C in an incubator with 5% CO2. Prior to experimentation, all cell lines used were correctly identified by STR profiling, and tested negative for mycoplasma contamination using a mycoplasma detection kit through routine screenings. Table A1. Tumor cells and cell culture medium used in the present disclosure
(§3) IC50 values of the compounds of the present disclosure (including the compounds in Table 1, and compounds of examples) were measured using the Meilun Cell Counting Kit-8 kit from Dalian Meilun Biotech Co., Ltd. Assay details are as follows: tumor cells were seeded in a 96-well plate at a density listed in Table A2. After 24h, 100 µL of the inoculated cells were treated with 0.5µL of the compounds of the present disclosure (including the compounds in Tables 1 and 2, and compounds of examples) at 10 different successively decreasing concentrations (starting at the highest concentration of 10µM; 5-fold serial dilutions). After the cells were treated with the compounds of the present disclosure for a period of time, the cell viability detection reagent was added to the culture medium for cell viability assessment according to the instructions provided with the CCK-8 kit. […] The growth inhibition of the compounds of the present disclosure on cells was plotted by Prism Graphpad software, and the IC50 values of the compounds of the present disclosure were calculated therefrom. […] Seeding protocol and treatment time for tumor cells

MM.1S = test: CCK-8 proliferation, MM.1S; assay type: cell-based; details: Homo sapiens, MM1.S; CCK-8; 72 hours; read-out: Inhibitory activity (IC50) on tumor cell proliferation, MM1S
Method in brief: (§4)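 Tumor cells were cultured at 37°C with 5% CO2, seeded, and after 24h treated with compounds at 10 concentrations starting at 10µM (5-fold serial dilutions).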

CCRF-CEM = test: CCK-8 proliferation, CCRF-CEM; assay type: cell-based, Human; details: Homo sapiens, CCRF-CEM; CCK-8; 96 hours; read-out: Inhibitory activity (IC50) on tumor cell proliferation, CCRF-CEM
Method in brief: as §4

H1975 = test: CCK-8 proliferation, NCI-H1975 (H1975); assay type: cell-based, Human; details: Homo sapiens, NCI-H1975; CCK-8; 96 hours; read-out: Inhibitory activity (IC50) on tumor cell proliferation, H1975
Method in brief: as §4

CDK4 = target: T3, CDK4 (Homo sapiens, UniProt P11802); test: Western blot degradation of CDK4 (MDA-MB-231 Cell); assay type: cell-based; details: Table D3
T3 construct: evaluate the effects of the compounds of the present disclosure on the expression of target proteins in cells; endogenous in cells; host or cells: MDA-MB-231
Method in brief: as §1

Kasumi-1 = test: CCK-8 proliferation, Kasumi-1; assay type: cell-based, Human; details: Homo sapiens, Kasumi 1, 72 hours, read-out: Inhibitory activity (IC50) on tumor cell proliferation, Kasumi-1
Protocol: as §2, §3

PC-9 = test: CCK-8 proliferation, PC-9; assay type: cell-based, Human; details: Homo sapiens, PC-9; CCK-8; 96 hours; read-out: Inhibitory activity (IC50) on tumor cell proliferation, PC-9
Method in brief: as §4

H2228 = test: CCK-8 proliferation, NCI-H2228 (H2228); assay type: cell-based; details: Homo sapiens, NCI-H2228; CCK-8; 96 hours; read-out: Inhibitory activity (IC50) on tumor cell proliferation, H2228
Method in brief: as §4

MCF7 = test: CCK-8 proliferation, MCF7 (MCF-7); assay type: cell-based; details: Homo sapiens, MCF7; CCK-8; read-out: Inhibitory activity (IC50) on tumor cell proliferation, MCF7
Method in brief: as §4

22RV1 = test: CCK-8 proliferation, 22RV1; assay type: cell-based; details: Homo sapiens, 96 hours, read-out: Inhibitory activity (IC50) on tumor cell proliferation, 22RV1
Protocol: as §2, §3

SW620 = test: CCK-8 proliferation, SW620; assay type: cell-based; details: Homo sapiens, SW-620; CCK-8; 96 hours; read-out: Inhibitory activity (IC50) on tumor cell proliferation, SW620
Protocol: as §2, §3

Jurkat = test: CCK-8 proliferation, Jurkat; assay type: cell-based, Human; details: Homo sapiens, Jurkat; CCK-8; 96 hours; read-out: Inhibitory activity (IC50) on tumor cell proliferation, Jurkat
Method in brief: as §4

SR = test: CCK-8 proliferation, SR; assay type: cell-based, Human; details: Homo sapiens, SR; CCK-8; 72 hours; read-out: Inhibitory activity (IC50) on tumor cell proliferation, SR
Method in brief: as §4

T1 sequence (Q96SW2 whole entry): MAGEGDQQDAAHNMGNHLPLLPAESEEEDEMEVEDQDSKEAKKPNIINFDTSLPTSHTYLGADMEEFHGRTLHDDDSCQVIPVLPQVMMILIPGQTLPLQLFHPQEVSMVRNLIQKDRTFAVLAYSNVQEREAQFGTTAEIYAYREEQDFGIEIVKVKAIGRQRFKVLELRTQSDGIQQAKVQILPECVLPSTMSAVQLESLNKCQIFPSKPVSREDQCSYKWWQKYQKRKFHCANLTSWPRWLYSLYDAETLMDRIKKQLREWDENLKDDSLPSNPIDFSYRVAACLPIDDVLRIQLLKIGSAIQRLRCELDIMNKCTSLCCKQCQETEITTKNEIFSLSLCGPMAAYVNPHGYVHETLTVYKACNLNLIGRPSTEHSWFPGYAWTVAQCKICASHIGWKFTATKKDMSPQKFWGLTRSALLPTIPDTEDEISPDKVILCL
T2 sequence (Q00534 whole entry): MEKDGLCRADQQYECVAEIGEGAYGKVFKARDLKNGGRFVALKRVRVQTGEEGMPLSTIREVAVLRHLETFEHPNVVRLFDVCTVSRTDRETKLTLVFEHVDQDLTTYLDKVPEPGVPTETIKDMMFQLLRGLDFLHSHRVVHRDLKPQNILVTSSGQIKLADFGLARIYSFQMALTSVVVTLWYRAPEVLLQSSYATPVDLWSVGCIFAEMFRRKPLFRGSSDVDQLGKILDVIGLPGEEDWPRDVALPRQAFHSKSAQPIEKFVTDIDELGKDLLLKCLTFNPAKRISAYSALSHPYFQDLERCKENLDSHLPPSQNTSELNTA
T3 sequence (P11802 whole entry): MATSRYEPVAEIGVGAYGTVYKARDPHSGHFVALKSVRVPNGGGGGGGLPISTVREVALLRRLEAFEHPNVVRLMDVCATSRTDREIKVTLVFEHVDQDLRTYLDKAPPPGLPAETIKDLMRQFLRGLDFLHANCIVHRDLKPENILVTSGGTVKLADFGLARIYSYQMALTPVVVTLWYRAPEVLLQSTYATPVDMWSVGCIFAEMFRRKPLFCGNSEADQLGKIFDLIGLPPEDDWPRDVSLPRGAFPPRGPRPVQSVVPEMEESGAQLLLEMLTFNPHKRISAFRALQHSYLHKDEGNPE

Structure (SMILES)	IC50 (MM.1R)	IC50 (MM.1S)	IC50 (CCRF-CEM)	IC50 (H1975)	IC50 (PC-9)	IC50 (H2228)	IC50 (SW620)	other results
Cc1nc2c(F)cc(-c3nc(Nc4ccc(N5CCC(N6CCN(Cc7ccc(C8CCC(=O)NC8=O)cc7)CC6)CC5)cn4)ncc3F)cc2n1C(C)C (centres unmarked) [GT-03905, 3-(4-((4-(1-(6-((5-fluoro-4-(4-fluoro-1-isopropyl-2-methyl-1H-benzo[d]imidazol-6-yl)pyrimidin-2-yl)amino)pyridin-3-yl)piperidin-4-yl)piperazin-1-yl)methyl)phenyl)piperidine-2,6-dione]	50 to 100 nM	50 to 100 nM	100 to 500 nM	100 to 500 nM				inhibition at 0.5 µM [1]: 40 to 53%; inhibition at 2 µM [1]: 53 to 60%; Degradation of substrate protein CDK6 (substrate protein remaining %) (CDK6): A (A is defined as 0% ≤ substrate protein remaining % ≤ 80%); Degradation of substrate protein CDK4 (substrate protein remaining %) (CDK4): A (A is defined as 0% ≤ substrate protein remaining % ≤ 80%); IC50 (Kasumi-1): 50 to 100 nM
CN1CCN([C@@H]2CCCN(c3cnc(C(N)=O)c(Nc4ccc(C5CCN(Cc6ccc(N7CCC(=O)NC7=O)cc6)CC5)cc4)n3)C2)C1=O [GT-04802, (R)-3-((4-(1-(4-(2,4-dioxotetrahydropyrimidin-1(2H)-yl)benzyl)piperidin-4-yl)phenyl)amino)-5-(3-(3-methyl-2-oxoimidazolidin-1-yl)piperidin-1-yl)pyrazine-2-carboxamide]	100 to 500 nM			500 to 1000 nM	100 to 500 nM	100 to 500 nM		
CN1CCN([C@@H]2CCCN(c3cnc(C(N)=O)c(Nc4ccc(C5CCN(Cc6cccc(N7CCC(=O)NC7=O)c6)CC5)cc4)n3)C2)C1=O [GT-04800, (R)-3-((4-(1-(3-(2,4-dioxotetrahydropyrimidin-1(2H)-yl)benzyl)piperidin-4-yl)phenyl)amino)-5-(3-(3-methyl-2-oxoimidazolidin-1-yl)piperidin-1-yl)pyrazine-2-carboxamide]	500 to 1000 nM				100 to 500 nM	500 to 1000 nM		
COc1cc(C(=O)NC2CCN(Cc3cccc(N4CCC(=O)NC4=O)c3)CC2)c(F)cc1Nc1ncc(C(F)(F)F)c(Oc2cccc3c2C(=O)N(C)C3)n1 [GT-04257, N-(1-(3-(2,4-dioxotetrahydropyrimidin-1(2H)-yl)benzyl)piperidin-4-yl)-2-fluoro-5-methoxy-4-((4-((2-methyl-3-oxoisoindolin-4-yl)oxy)-5-(trifluoromethyl)pyrimidin-2-yl)amino)benzamide]	100 to 500 nM		100 to 500 nM				500 to 1000 nM	inhibition at 0.5 µM [1]: 60 to 80%; inhibition at 2 µM [1]: 80 to 100%; IC50 (Jurkat): 100 to 500 nM
Cc1nc2c(F)cc(-c3nc(Nc4ccc(N5CCC(N6CCN(Cc7cc(N8CCC(=O)NC8=O)ncc7F)CC6)CC5)cn4)ncc3F)cc2n1C(C)C [GT-07486, 1-(5-fluoro-4-((4-(1-(6-((5-fluoro-4-(4-fluoro-1-isopropyl-2-methyl-1H-benzo[d]imidazol-6-yl)pyrimidin-2-yl)amino)pyridin-3-yl)piperidin-4-yl)piperazin-1-yl)methyl)pyridin-2-yl)dihydropyrimidine-2,4(1H,3H)-dione]		50 to 100 nM	100 to 500 nM	50 to 100 nM				IC50 (MCF7): 50 to 100 nM; IC50 (22RV1): 10 to 50 nM
CN1CCN([C@@H]2CCCN(c3cnc(C(N)=O)c(Nc4ccc(C5CCN(Cc6ccc(N7CCC(=O)NC7=O)cc6F)CC5)cc4)n3)C2)C1=O [GT-04803, (R)-3-((4-(1-(4-(2,4-dioxotetrahydropyrimidin-1(2H)-yl)-2-fluorobenzyl)piperidin-4-yl)phenyl)amino)-5-(3-(3-methyl-2-oxoimidazolidin-1-yl)piperidin-1-yl)pyrazine-2-carboxamide]	100 to 500 nM			500 to 1000 nM	100 to 500 nM	100 to 500 nM	100 to 500 nM	
NC(=O)c1ncc(N2CCCCC2)nc1Nc1ccc(C2CCN(Cc3ccc(C4CCC(=O)NC4=O)cc3)CC2)cc1 (centres unmarked) [GT-04785, 3-((4-(1-(4-(2,6-dioxopiperidin-3-yl)benzyl)piperidin-4-yl)phenyl)amino)-5-(piperidin-1-yl)pyrazine-2-carboxamide]	100 to 500 nM			500 to 1000 nM	100 to 500 nM	100 to 500 nM	500 to 1000 nM	
Cc1nc2c(F)cc(-c3nc(Nc4ccc(N5CCC(N6CCN(Cc7ccc(C8CCC(=O)NC8=O)c(F)c7)CC6)CC5)cn4)ncc3F)cc2n1C(C)C (centres unmarked) [GT-03906, 3-(2-fluoro-4-((4-(1-(6-((5-fluoro-4-(4-fluoro-1-isopropyl-2-methyl-1H-benzo[d]imidazol-6-yl)pyrimidin-2-yl)amino)pyridin-3-yl)piperidin-4-yl)piperazin-1-yl)methyl)phenyl)piperidine-2,6-dione]	50 to 100 nM	10 to 50 nM	100 to 500 nM	100 to 500 nM				IC50 (SR): 50 to 100 nM; Degradation of substrate protein CDK6 (substrate protein remaining %) (CDK6): A (A is defined as 0% ≤ substrate protein remaining % ≤ 80%); IC50 (MCF7): 100 to 500 nM; Degradation of substrate protein CDK4 (substrate protein remaining %) (CDK4): A (A is defined as 0% ≤ substrate protein remaining % ≤ 80%); IC50 (Kasumi-1): 50 to 100 nM

The next lines start with results.

IC50 (MM.1R)	IC50 (MM.1S)	IC50 (CCRF-CEM)	IC50 (H1975)	IC50 (PC-9)	IC50 (H2228)	IC50 (SW620)	Structure (SMILES)	other results
500 to 1000 nM			500 to 1000 nM	100 to 500 nM	100 to 500 nM		NC(=O)c1ncc(N2CCCCC2)nc1Nc1ccc(C2CCN(Cc3cccc(N4CCC(=O)NC4=O)c3)CC2)cc1 [GT-04787, 3-((4-(1-(3-(2,4-dioxotetrahydropyrimidin-1(2H)-yl)benzyl)piperidin-4-yl)phenyl)amino)-5-(piperidin-1-yl)pyrazine-2-carboxamide]	
	10 to 50 nM	50 to 100 nM	50 to 100 nM				Cc1nc2c(F)cc(-c3nc(Nc4ccc(N5CCC(N6CCN(Cc7ccnc(N8CCC(=O)NC8=O)c7)CC6)CC5)cn4)ncc3F)cc2n1C(C)C [GT-07487, 1-(4-((4-(1-(6-((5-fluoro-4-(4-fluoro-1-isopropyl-2-methyl-1H-benzo[d]imidazol-6-yl)pyrimidin-2-yl)amino)pyridin-3-yl)piperidin-4-yl)piperazin-1-yl)methyl)pyridin-2-yl)dihydropyrimidine-2,4(1H,3H)-dione]	inhibition at 0.5 µM [1]: 30 to 40%; inhibition at 2 µM [1]: 53 to 60%; IC50 (MCF7): 10 to 50 nM; IC50 (22RV1): 10 to 50 nM
< 1 nM				500 to 1000 nM	100 to 500 nM	500 to 1000 nM	NC(=O)c1ncc(N2CCCCC2)nc1Nc1ccc(C2CCN(Cc3cccc(NC4CCC(=O)NC4=O)c3)CC2)cc1 (centres unmarked) [GT-04791, 3-((4-(1-(3-((2,6-dioxopiperidin-3-yl)amino)benzyl)piperidin-4-yl)phenyl)amino)-5-(piperidin-1-yl)pyrazine-2-carboxamide]	
500 to 1000 nM							CN(Cc1ccc(C2CCC(=O)NC2=O)cc1)C1CCN(c2ccc(C(N)=O)c(-c3ccc(Oc4ccccc4)cc3)n2)CC1 (centres unmarked) [GT-03828, 6-(4-((4-(2,6-dioxopiperidin-3-yl)benzyl)(methyl)amino)piperidin-1-yl)-2-(4-phenoxyphenyl)nicotinamide]	
